O=C(O)c1cccnc1
solubility (mole fraction) (in DMSO, 293.56 K): 0.0597 | solubility (mole fraction) (in DMSO, 303.38 K): 0.074 | solubility (mole fraction) (in DMSO, 313.07 K): 0.0911 | solubility (mole fraction) (in DMSO, 322.84 K): 0.109 | solubility (mole fraction) (in DMSO, 332.36 K): 0.131 | solubility (mole fraction) (in acetone, 285.46 K): 0.000733 | solubility (mole fraction) (in acetone, 292.26 K): 0.00114 | solubility (mole fraction) (in acetone, 296.8 K): 0.00137 | solubility (mole fraction) (in acetone, 302.14 K): 0.00161 | solubility (mole fraction) (in acetone, 307.1 K): 0.00231 | solubility (mole fraction) (in acetone, 317.11 K): 0.00318 | solubility (mole fraction) (in acetonitrile, 283.3 K): 7.12e-05 | solubility (mole fraction) (in acetonitrile, 288.51 K): 0.00012 | solubility (mole fraction) (in acetonitrile, 293.01 K): 0.00017 | solubility (mole fraction) (in acetonitrile, 297.58 K): 0.000185 | solubility (mole fraction) (in acetonitrile, 302.63 K): 0.000268 | solubility (mole fraction) (in acetonitrile, 306.91 K): 0.000354 | solubility (mole fraction) (in acetonitrile, 312.49 K): 0.000475 | solubility (mole fraction) (in acetonitrile, 316.21 K): 0.000547 | solubility (mole fraction) (in acetonitrile, 322.45 K): 0.000715 | solubility (mole fraction) (in acetonitrile, 332.32 K): 0.00107 | solubility (mole fraction) (in diethyl ether, 283.45 K): 0.000322 | solubility (mole fraction) (in diethyl ether, 285.74 K): 0.000379 | solubility (mole fraction) (in diethyl ether, 290.57 K): 0.000539 | solubility (mole fraction) (in diethyl ether, 294.02 K): 0.000618 | solubility (mole fraction) (in diethyl ether, 298.66 K): 0.000813 | solubility (mole fraction) (in ethanol, 283.38 K): 0.00224 | solubility (mole fraction) (in ethanol, 293.46 K): 0.00309 | solubility (mole fraction) (in ethanol, 303.15 K): 0.00423 | solubility (mole fraction) (in ethanol, 312.83 K): 0.00605 | solubility (mole fraction) (in ethanol, 322.64 K): 0.00843 | solubility (mole fraction) (in ethanol, 332.43 K): 0.0115 | solubility (mole fraction) (in water, 283.59 K): 0.00172 | solubility (mole fraction) (in water, 293.41 K): 0.00218 | solubility (mole fraction) (in water, 303.03 K): 0.00281 | solubility (mole fraction) (in water, 312.49 K): 0.00475 | solubility (mole fraction) (in water, 312.97 K): 0.00365 | solubility (mole fraction) (in water, 316.21 K): 0.00547 | solubility (mole fraction) (in water, 322.45 K): 0.00715 | solubility (mole fraction) (in water, 322.83 K): 0.00465 | solubility (mole fraction) (in water, 332.01 K): 0.00586 | solubility (mole fraction) (in water, 332.32 K): 0.0107

Source: BigSolDB 2.1
